According to patent publication US20080051379A1, “Compositions and Methods for the Treatment of Peripheral B-Cell Neoplasms” (Trustees of Boston University, priority 2004, published 2008):

Legend:
Type in all cases: cell-based, human
[1] = system: PDE4A, PDE4B or PDE4D expression in B-CLL cells; test: Western analysis of PDE4 isoforms, B-CLL cells; conditions: 10 μM rolipram, 18 hours
Procedure: B-CLL and CCRF-CEM cells were incubated for 18 hours with media alone, 10 μM rolipram, 10 μM forskolin (Fsk), 1 μM hydrocortisone (HC), or the same concentration of rolipram combined with 1 μM hydrocortisone (Roli+HC) or 10 μM forskolin (Roli+Fsk). Lysates of the cells were then assessed for expression of PDE4A, PDE4B or PDE4D by Western analysis. Equal loading of samples was verified by immunoblotting for tubulin.
30 million B-CLL cells or 10 million CCRF-CEM cells were incubated for 18 hours in media alone or with the addition of drugs as indicated in the text. Western analysis was then carried out as previously described^30. The PDE4A (66C12H), PDE4B (96G7A) and PDE4D (61D10E) antibodies were kind gifts from Dr. Sharon Wolda (ICOS, Bothell, Wash.) and have been previously described^30 31.

[2] = system: CD3+ CD4+ Sezary cells; test: Hoechst 33342 apoptosis assay, Sezary cells; conditions: 10 μM rolipram or 1 μM hydrocortisone; one patient
Procedure: Magnetic bead purified peripheral blood T cells or leukemic cells from patients with B-CLL or Sezary syndrome were cultured in media alone or with a dose titration of hydrocortisone (solid line), followed by assessment for apoptosis by Hoechst 33342 FACS analysis at 48 hours. Using the same experimental conditions, the effect of addition of 10 μM rolipram (thick dashed line) or 10 μM rolipram and 40 μM forskolin (dotted line) was also assessed. The SEM of triplicate samples is shown; where not visible, the SEM was less than 1.0%.
(§1) CCRF-CEM cells were obtained from ATCC^27. Leukemic or normal mononuclear cells were obtained by centrifugation over Histopaque 1077 (Sigma Chemical Company, St. Louis, Mo.). For purification of T cells, whole mononuclear cells from normal subjects were incubated with magnetic beads coated with appropriate antibodies, then positively purified using a magnet (Miltenyi). […]
(§2) Hoechst 33342 and DiOC6(3) apoptosis assays were performed as previously described^22,28. […] The absorbance (O.D.) of the formazan product was determined at 492 nm using a plate reader (Titertek Multiscan Plus, Labsystems). Percent cell viability was calculated as follows: (O.D. control sample−O.D. blank)/(O.D. test sample−O.D. blank)×100. […]

[3] = system: glucocorticoid-resistant subclone (CEM-R8); test: MTS cell survival assay, CEM-R8; conditions: dexamethasone-resistant CCRF-CEM cells; 10 μM, 72 hours
Procedure: In FIG. 5A, the polyclonal parental cell line (CCRF-CEM), the single cell-derived glucocorticoid-resistant subclone (CEM-R8) and the single cell-derived glucocorticoid-sensitive subclone (CEM-S2) were cultured for 72 hours in the presence of vehicle (ETOH) or dexamethasone at the concentrations indicated and cell viability was assessed by the MTS assay as described in Methods. In FIG. 5B, the glucocorticoid-resistant subclone (CEM-R8) and the glucocorticoid-sensitive subclone (CEM-S2) were cultured for 72 hours in the presence of hydrocortisone (HC) (10 μM HC for the CEM-R8 cells and 1 μM HC for the CEM-S2 cells), 10 μM forskolin (Fsk), 10 μM rolipram (Rol), or combinations of these agents as indicated, and cell viability was assessed by the MTS assay as described in Methods. FIG. 5C: The glucocorticoid-resistant subclone (CEM-R8) and the glucocorticoid-sensitive subclone (CEM-S2) were cultured for 72 hours in the presence of varying amounts of dibutyryl cAMP (db-cAMP) in the absence (−HC) or presence (+HC) of 1 μM hydrocortisone as indicated, and cell viability was assessed by the MTS assay as described in Methods. […]
Hoechst 33342 and DiOC6(3) apoptosis assays were performed as previously described^22,28. […] The absorbance (O.D.) of the formazan product was determined at 492 nm using a plate reader (Titertek Multiscan Plus, Labsystems). […]

[4] = system: glucocorticoid-sensitive subclone (CEM-S2); test: MTS cell survival assay, CEM-S2; conditions: dexamethasone-sensitive CCRF-CEM cells; 10 μM, 72 hours
Procedure: In FIG. 5A, the polyclonal parental cell line (CCRF-CEM), the single cell-derived glucocorticoid-resistant subclone (CEM-R8) and the single cell-derived glucocorticoid-sensitive subclone (CEM-S2) were cultured for 72 hours in the presence of vehicle (ETOH) or dexamethasone at the concentrations indicated and cell viability was assessed by the MTS assay as described in Methods. In FIG. 5B, the glucocorticoid-resistant subclone (CEM-R8) and the glucocorticoid-sensitive subclone (CEM-S2) were cultured for 72 hours in the presence of hydrocortisone (HC) (10 μM HC for the CEM-R8 cells and 1 μM HC for the CEM-S2 cells), 10 μM forskolin (Fsk), 10 μM rolipram (Rol), or combinations of these agents as indicated, and cell viability was assessed by the MTS assay as described in Methods. FIG. 5C: The glucocorticoid-resistant subclone (CEM-R8) and the glucocorticoid-sensitive subclone (CEM-S2) were cultured for 72 hours in the presence of varying amounts of dibutyryl cAMP (db-cAMP) in the absence (−HC) or presence (+HC) of 1 μM hydrocortisone as indicated, and cell viability was assessed by the MTS assay as described in Methods. The data shown were normalized to the vehicle control. Results represent the mean±SD of triplicate determinations.
as §1, §2

Q: With `COc1ccc(C2CNC(=O)C2)cc1OC1CCCC1` (centres unmarked) [rolipram, 4-(3-cyclopentyloxy-4-methoxyphenyl)-2-pyrrolidone] as the molecule, how does the “expression of 63 and 68 kDa form of PDE4D” value [1] read?
A: Its value is “either no or very low level rolipram-induced expression”.

Q: And the “expression of 63 and 68 kDa forms of PDE4B” value [1]?
A: Its value is “rolipram-inducible expression”.

Q: What about the “apoptotic effect used separately on Sezary leukemic cells” value [2] of the same molecule?
A: Its value is “little effect”.

Q: And the “effect on cell viability as single agent” value [3]?
A: The value was “no discernable effect”.

Q: And the “effect on cell viability as single agent” value [4]?
A: The value was “no discernable effect”.
